{
  "source": "patent US4330527A",
  "about": "“Wound treatment agent” (priority 1979, dated 1982)",
  "key": {"NPT [1]": {"test_system": "NPT", "type": "biochemical, Clostridium perfringens ATCC 21510"}, "[2]": {"test_system": "granulation tissue in P.V.H.-sponge", "design": "species or system rats (Wistar strain, male)", "settings": "rat, in vivo"}, "NPT [3]": {"test_system": "NPT", "type": "biochemical, Clostridium perfringens ATCC 21510", "remark": "listed apart in the source"}, "5'-nucleotidase": {"test_system": "5'-nucleotidase", "assay": "Effects of metal ions and other chemical agents on nucleotidase activity", "type": "biochemical"}, "epidermis (dorsal skin)": {"test_system": "epidermis (dorsal skin)", "assay": "Experiment 9: epidermization effect on dermatome-peeled dorsal skin", "type": "in vivo, rabbit", "settings": "further examination"}, "epidermis": {"test_system": "epidermis", "settings": "literature; cited from earlier work"}, "[4]": {"test_system": "collagen in P.V.H.-sponge", "assay": "Experiment 6: weight of collagen (hydroxyproline) in the buried sponge", "type": "in vivo, rats", "settings": "for Hydroxyproline: n = 8; for Hydroxyproline, % of control: control = 100%"}},
  "note": "Entries after “also recorded” stand apart in the source; their conditions may differ.",
  "data": [
    {"molecule": "3-phosphoglycerophosphate", "values": [
      {"measurement": "action as phosphate donor", "setting": "NPT [1]", "result": "not observed"}
    ]},
    {"molecule": "CC(=O)OCC(=O)[C@@]1(O)CC[C@H]2[C@@H]3CCC4=CC(=O)C=C[C@]4(C)[C@H]3[C@@H](O)C[C@@]21C", "note": "[Prednisolone acetate]", "values": [
      {"measurement": "(1) Wet weight", "setting": "[2]", "result": "225 ± 58.9", "unit": "mg"},
      {"measurement": "(1)-(2) Liquid content", "setting": "[2]", "result": "167.4 ± 52.2", "unit": "mg"},
      {"measurement": "(2) - sponge weight, Solid content", "setting": "[2]", "result": "22.6 ± 9.6", "unit": "mg"},
      {"measurement": "(2) Dry weight", "setting": "[2]", "result": "57.8 ± 9.9", "unit": "mg"},
      {"measurement": "Dry weight, %", "setting": "[2]", "result": 91.2, "unit": "%"},
      {"measurement": "Liquid content, %", "setting": "[2]", "result": 68.4, "unit": "%"},
      {"measurement": "Solid content, %", "setting": "[2]", "result": 80.7, "unit": "%"},
      {"measurement": "Wet weight, %", "setting": "[2]", "result": 73.0, "unit": "%"},
      {"measurement": "effect on weights / newly grown granulation tissue (in words)", "setting": "[2]", "result": "the dry weight, wet weight, quantity of exudate and weight of newly grown granulation tissue all fall below those with the control"}
    ]},
    {"molecule": "Nc1ncnc2c1ncn2[C@@H]1O[C@H](COP(=O)(O)OP(=O)(O)OP(=O)(O)O)[C@@H](O)[C@H]1O", "note": "[adenosine triphosphate]", "values": [
      {"measurement": "action as phosphate donor", "setting": "NPT [1]", "result": "not observed"}
    ]},
    {"molecule": "CN(CC(=O)O)C(=N)NP(=O)(O)O", "note": "[creatine phosphate]", "values": [
      {"measurement": "action as phosphate donor", "setting": "NPT [1]", "result": "not observed"}
    ]},
    {"molecule": "Nc1ccn([C@@H]2O[C@H](CO)[C@@H](O)[C@H]2O)c(=O)n1", "note": "[cytidine]", "values": [
      {"measurement": "action as phosphate acceptor", "setting": "NPT [1]", "result": "phosphate acceptor"}
    ]},
    {"molecule": "Nc1ncnc2c1ncn2[C@H]1C[C@H](O)[C@@H](COP(=O)(O)OP(=O)(O)OP(=O)(O)O)O1", "note": "[deoxyadenosine triphosphate]", "values": [
      {"measurement": "action as phosphate donor", "setting": "NPT [1]", "result": "not observed"}
    ]},
    {"molecule": "Nc1ccn([C@H]2C[C@H](O)[C@@H](CO)O2)c(=O)n1", "note": "[deoxycytidine]", "values": [
      {"measurement": "action as phosphate acceptor", "setting": "NPT [1]", "result": "phosphate acceptor"}
    ]},
    {"molecule": "O=c1ccn([C@H]2C[C@H](O)[C@@H](CO)O2)c(=O)[nH]1", "note": "[deoxyuridine]", "values": [
      {"measurement": "action as phosphate acceptor", "setting": "NPT [1]", "result": "phosphate acceptor"}
    ]},
    {"molecule": "O=P(O)(O)OC[C@H]1OC(O)[C@H](O)[C@@H](O)[C@@H]1O", "note": "(some centres unmarked) [glucose-6-phosphate]", "values": [
      {"measurement": "action as phosphate donor", "setting": "NPT [1]", "result": "not observed"}
    ]},
    {"molecule": "O=C(O)c1cc[c]([Hg][Cl])cc1", "note": "[p-chloromercuribenzoic acid]", "values": [
      {"measurement": "effect on NPT activity", "setting": "NPT [3]", "result": "neither of them are inhibited"},
      {"measurement": "effect on nucleotidase activity", "setting": "5'-nucleotidase", "result": "neither of them are inhibited"}
    ]},
    {"molecule": "Cc1cn([C@H]2C[C@H](O)[C@@H](CO)O2)c(=O)[nH]c1=O", "note": "[thymidine]", "values": [
      {"measurement": "action as phosphate acceptor", "setting": "NPT [1]", "result": "phosphate acceptor"}
    ]},
    {"molecule": "O=c1ccn([C@@H]2O[C@H](CO)[C@@H](O)[C@H]2O)c(=O)[nH]1", "note": "[uridine]", "values": [
      {"measurement": "action as phosphate acceptor", "setting": "NPT [1]", "result": "lowest activity as the phosphate acceptor"}
    ]},
    {"molecule": "[O]=[Zn]", "note": "[zinc oxide]", "values": [
      {"measurement": "capability of epidermization (in words)", "setting": "epidermis (dorsal skin)", "result": "synergistic effect with GF-70 to stimulate the epidermization"}
    ]},
    {"molecule": "O=P(O)(O)OCC(O)CO", "note": "(stereo not drawn) [α-glycerophosphate]", "values": [
      {"measurement": "action as phosphate donor", "setting": "NPT [1]", "result": "not observed"}
    ]},
    {"molecule": "vitamin A", "values": [
      {"measurement": "effect on skin tissue / DNA synthesis in epidermis", "setting": "epidermis", "result": "stimulates synthesis of DNA in the epidermis; also recorded: affect the growth and differentiation of the skin tissue"}
    ]},
    {"molecule": "Albumin: egg albumin as the control (protein, UniProt P01012 2-386, looked up) Ovalbumin: GSIGAASMEFCFDVFKELKVHHANENIFYCPIAIMSALAMVYLGAKDSTRTQINKVVRFDKLPGFGDSIEAQCGTSVNVHSSLRDILNQITKPNDVYSFSLASRLYAEERYPILPEYLQCVKELYRGGLEPINFQTAADQARELINSWVESQTNGIIRNVLQPSSVDSQTAMVLVNAIVFKGLWEKAFKDEDTQAMPFRVTEQESKPVQMMYQIGLFRVASMASEKMKILELPFASGTMSMLVLLPDEVSGLEQLESIINFEKLTEWTSSNVMEERKIKVYLPRMKMEEKYNLTSVLMAMGITDVFSSSANLSGISSAESLKISQAVHAAHAEINEAGREVVGSAEAGVDAASVSEEFRADHPFLFCIKHIATNAVLFFGRCVSP", "values": [
      {"measurement": "weight of collagen (in words)", "setting": "[4]; 4th and 7th days, vs control", "result": "no significant difference"},
      {"measurement": "Hydroxyproline", "setting": "[4]; 4 days after burying", "result": "132.3 ± 18.0", "unit": "μg/sponge"},
      {"measurement": "Hydroxyproline, % of control", "setting": "[4]; 4 days after burying", "result": 105, "unit": "%"},
      {"measurement": "Hydroxyproline", "setting": "[4]; 7 days after burying", "result": "331.7 ± 18.8", "unit": "μg/sponge"},
      {"measurement": "Hydroxyproline, % of control", "setting": "[4]; 7 days after burying", "result": 146, "unit": "%"}
    ]}
  ]
}
